What was measured:
[1] = system: Pseudomonas aeruginosa (10 E); experiment: MIC in broth, Gram- strains; format: cell-based; conditions: 18 h, read-out: Minimal Inhibitory Concentration (MIC)
Procedure: (§1) MICs were determined by a standard microdilution test, using serial two-fold dilutions of the substances in Mueller-Hinton broth.
(§2) The inoculum was prepared from an overnight culture in Mueller-Hinton broth matching the 0.5 Mc Farland (turbidity) standard (BRAY W. E., Clinical Laboratory Methods, 5th Ed. C. V. MOSBY, St. Louis, Mo. 1957), and was adjusted to a final concentration of 5.0×10^4 colony-forming units/ml.
(§3) Equal volumes (0.1 ml) of both bacterial suspensions and substance solutions were distributed in microtiter plates (Falcon, 96 wells, round bottom), and then placed in a humidified incubator (37° C.) for 18 hours.
(§4) Evaluation of the Minimal Inhibitory Concentration (MIC) in broth of 16 new substances for Gram- bacterial strains.
(§5) The following strains were used: Enterobacter (1), Escherichia (3), Klebsiella (3), Proteus (3); Pseudomonas (2); Salmonella (2), Serratia (1).

[2] = system: Serratia marcescens (A/1); experiment: MIC in broth, Gram- strains; format: cell-based; conditions: 18 h, read-out: Minimal Inhibitory Concentration (MIC)
Procedure: as §1, §2, §3, §4, §5

Escherichia coli (76 F) = experiment: MIC in broth, Gram- strains; format: cell-based; conditions: 18 h, E. coli (76 F), read-out: Minimal Inhibitory Concentration (MIC)
Procedure: as §1, §2, §3, §4, §5

Proteus mirabilis (32) = experiment: MIC in broth, Gram- strains; format: cell-based; conditions: 18 h, read-out: Minimal Inhibitory Concentration (MIC)
Procedure: as §1, §2, §3, §4, §5

Escherichia coli (92 F) = experiment: MIC in broth, Gram- strains; format: cell-based; conditions: 18 h, E. coli (92 F), read-out: Minimal Inhibitory Concentration (MIC)
Procedure: as §1, §2, §3, §4, §5

[3] = system: Klebsiella pneumoniae (7823); experiment: MIC in broth, Gram- strains; format: cell-based; conditions: 18 h, read-out: Minimal Inhibitory Concentration (MIC)
Procedure: as §1, §2, §3, §4, §5

Proteus vulgaris (UM) = experiment: MIC in broth, Gram- strains; format: cell-based; conditions: 18 h, read-out: Minimal Inhibitory Concentration (MIC)
Procedure: as §1, §2, §3, §4, §5

Klebsiella oxytoca (552) = experiment: MIC in broth, Gram- strains; format: cell-based; conditions: 18 h, read-out: Minimal Inhibitory Concentration (MIC)
Procedure: as §1, §2, §3, §4, §5

[4] = system: Enterobacter aerogenes (UM); experiment: MIC in broth, Gram- strains; format: cell-based; conditions: Klebsiella aerogenes, 18 h, read-out: Minimal Inhibitory Concentration (MIC)
Procedure: as §1, §2, §3, §4, §5

[5] = system: Salmonella typhimurium (D.S.); experiment: MIC in broth, Gram- strains; format: cell-based; conditions: Salmonella enterica, 18 h, read-out: Minimal Inhibitory Concentration (MIC)
Procedure: as §1, §2, §3, §4, §5

[6] = system: Pseudomonas aeruginosa (3 E); experiment: MIC in broth, Gram- strains; format: cell-based; conditions: 18 h, read-out: Minimal Inhibitory Concentration (MIC)
Procedure: as §1, §2, §3, §4, §5

mice = experiment: Assessment of behaviour and mortality in mice (Irwin's method); set-up: species or system mouse (male Crl:(CD-1)(ICR)BR); conditions: mouse, in vivo, po
Procedure: (§6) The assessment of normal behaviour in mice was carried out following S. Irwin's method (Psychopharmacologia, 13, 222 [1968]). This method allows alterations in some behavioural, neurophysiologic and neurovegetative parameters to be detected, which are directly observable by the researcher. The study was conducted using male Crl:(CD-1)(ICR)BR mice (Charles River--Italy) weighing 22-25 g, following oral administration of the compounds suspended in carboxymethylcellulose (0.5% by weight in H2 O) to groups of 4 animals/dose.
(§7) The animals were continously kept under observation for five hours following treatment and twice a day in the subsequent five days. Mortality was also observed during the overall test period.

[7] = as above; set-up: species or system mouse (male Crl:(CD-1)(ICR)BR); conditions: mouse, in vivo; oral, dose 1000, 4 animals/dose
Procedure: as §6, §7

[8] = system: Helicobacter pylori NCTC 11637; experiment: MIC in agar (agar dilution); format: cell-based
Procedure: (§8) In this experiment the activity of ST 722 and ST 712 against Campylobacter and Helicobacter was investigated.
(§9) Campylobacter fetus ATCC 27374, Campylobacter coli LI 048, Campylobacter jejuni 84-ISS, and Helicobacter pylori NCTC 11637.
(§10) The culture medium was Columbia agar base supplemented with 7% (V/V) defribinated horse blood (DHB) for Campylobacter strains, and the same medium additioned with Vitox (Oxoid) for Helicobacter strain.
(§11) The Campylobacter and Helicobacter strains, preserved at -80° C. in DHB containing 10% (V/V) glycerol, were thawed and grown, in their respective culture medium, in culture flasks, which were incubated for 48 hours at 37° C. in a 10% CO2 atmosphere. After this first growth cycle, the bacteria were allowed to go through a second growth cycle in the same conditions as above.
The bacterial "patina" was then harvested by resuspension in 4-5 ml of Mueller-Hinton broth, the turbidity of which was then assessed according to Mc Farland's criteria (BRAY W. E., Clinical Laboratory Methods, 5th Ed. C. V. MOSBY, St. Louis, Mo. 1957). […]
(§12) With a Steers-type multipoint inoculator (STEERS E., FOLTZ E. L., GRAVES S., RIDEN J., 1959. Inocula-replicating apparatus for routine testing of antibacterial susceptibility to antibiotics. Antibiot. Chemoter. 9: 307-311) 1-μl volumes of the above standardized suspensions were spot-transferred into the wells of a 96-well microtiter plate, which had previously been filled with 0.2 ml/well of Mueller-Hinton agar 5% DHB, containing the test substances at different concentrations.
(§13) The plates was then incubated for 48/72 hours at 37° C. in a 10% CO2 atmosphere.

Gram- bacterial strains = experiment: Mean MIC in broth and resistant strain number, Gram- strains; format: cell-based; conditions: 18 h, read-out: Mean MIC values
Procedure: as §1, §2, §3, §4, §5

[9] = system: Campylobacter fetus ATCC 27374; experiment: MIC in agar (agar dilution); format: cell-based
Procedure: as §8, §9, §10, §11
(§14) The bacterial "patina" was then harvested by resuspension in 4-5 ml of Mueller-Hinton broth, the turbidity of which was then assessed according to Mc Farland's criteria (BRAY W. E., Clinical Laboratory Methods, 5th Ed. C. V. MOSBY, St. Louis, Mo. 1957).
(§15) The Helicobacter suspension was adjusted to an approximate concentration of 1.0×10^9 and 1.0×10^8 organisms/ml, while the Campylobacter suspension was adjusted to 1.0×10^7 and 1.0×10^6 organisms/ml.
as §12, §13

[10] = system: Campylobacter coli LI 048; experiment: MIC in agar (agar dilution); format: cell-based
Procedure: as §8, §9, §10, §11, §14, §15, §12, §13

[11] = system: Campylobacter jejuni 84-ISS; experiment: MIC in agar (agar dilution); format: cell-based
Procedure: as §8, §9, §10, §11, §14, §15, §12, §13

[12] = system: 7 Gram- bacterial strains; experiment: Agar dilution test of undecyl alcohol; format: cell-based; conditions: emulsified in Tween 80, up to 300 mcg/ml
Procedure: (§16) To ascertain whether the antimicrobial activity was due to the undecyl alcohol (a possible product from the hydrolysis of the undecyl esters, such as e.g. ST 722 and ST 712), different "in vitro" tests were performed to overcome the difficulties stemming from the insolubility of the undecyl alcohol in the assay medium.
(§17) To circumvent this problem, three different experimental approaches were chosen obtaining the following results:
1) Undecyl alcohol emulsified in Tween 80 and tested up to the concentration of 300 mcg/ml in agar seeded with 7 Gram- bacterial strains (Agar dilution test).

[13] = system: 4 Gram- bacterial strains and 1 Gram+ bacterial strain; experiment: Broth dilution test of undecyl alcohol; format: cell-based; conditions: emulsified in Tween 80, up to 400 mcg/ml
Procedure: as §16, §17
3) Undecyl alcohol emulsified in Tween 80 and tested up to the concentration of 400 mcg/ml in broth seeded with 4 Gram- bacterial strains and 1 Gram+ bacterial strain (Broth dilution test).

[14] = system: 4 Gram- bacterial strains; experiment: Agar diffusion test of undecyl alcohol; format: cell-based; conditions: absolute (0.05 ml)
Procedure: as §16, §17
2) Undecyl alcohol absolute (0.05 ml) in agar seeded with 4 Gram- bacterial strains (Agar diffusion test).

Question: Which results are given for `CCCCCCCCCCCOC(=O)CC(C[N+](C)(C)C)OC(=O)C(C)C` [ST 712, Isobutyryl-L-Carnitine Undecyl Ester Chloride]?
Answer: MIC [1]: 50 µg/mL; MIC [2]: 50 µg/mL; MIC (Escherichia coli (76 F)): 25 µg/mL; MIC (Proteus mirabilis (32)): > 100 µg/mL; MIC (Escherichia coli (92 F)): 25 µg/mL; MIC [3]: 12.5 µg/mL; MIC (Proteus vulgaris (UM)): 100 µg/mL; MIC (Klebsiella oxytoca (552)): 12.5 µg/mL; MIC [4]: 25 µg/mL; MIC [5]: 25 µg/mL; MIC [6]: 50 µg/mL; Symptoms (mice): NONE; mortality at 120 h [7]: 0%; MIC ([8]; Helicobacter pylori, NCTC11637, I = inoculum of 1.0 × 10^5 cells/ml, read-out: MIC in agar): 3.12 µg/mL; MIC in agar ([8]; II = inoculum of 1.0 × 10^6 cells/ml): 3.12 µg/mL; antibacterial activity for Helicobacter and Campylobacter ([8]; agar, Helicobacter and Campylobacter strains): possess an antibacterial activity; MIC (Gram- bacterial strains): 36.4 µg/mL; MIC ([9]; Campylobacter fetus, ATCC27374, I = inoculum of 1.0 × 10^3): 100 µg/mL; MIC in agar ([9]; II = inoculum of 1.0 × 10^4): 100 µg/mL; MIC ([10]; Campylobacter coli, LI048, I = inoculum of 1.0 × 10^3): 6.25 µg/mL; MIC in agar ([10]; II = inoculum of 1.0 × 10^4): 6.25 µg/mL; MIC ([11]; I = inoculum of 1.0 × 10^3): 25 µg/mL; MIC ([11]; II = inoculum of 1.0 × 10^4): 50 µg/mL

Question: Which results are given for `CCCCCCCCCCCO` [Undecyl alcohol, undecyl alcohol]?
Answer: antibacterial activity [12]: no activity; antibacterial activity [13]: no activity; antibacterial activity [14]: no activity
